Tests used:
[1] = test system: T1, P. falciparum proteasome, β5 (chymotrypsin-like) activity; conditions: live trophozoites treated 3 h, then lysed; K13 C580Y background; effect may be indirect
T1 construct: gene beta5

[2] = molecular target: T2, P. falciparum proteasome, β5 (chymotrypsin-like) activity (Plasmodium falciparum, UniProt Q8IJT1); assay: fluorogenic Suc-LLVY-AMC cleavage in lysate of drug-treated parasites; assay type: cell-based; conditions: read-out: % inhibition at 700 nM
T2 construct: gene PF3D7_1011400; native proteasome in NP-40 lysate of 26-30 hpi trophozoites; not purified; 20S core of four heptameric rings; with Proteasome subunit beta type-7 (beta2 catalytic subunit); Proteasome subunit beta type-6 (beta1 catalytic subunit)
T2 sequence (Q8IJT1 entry or part of it): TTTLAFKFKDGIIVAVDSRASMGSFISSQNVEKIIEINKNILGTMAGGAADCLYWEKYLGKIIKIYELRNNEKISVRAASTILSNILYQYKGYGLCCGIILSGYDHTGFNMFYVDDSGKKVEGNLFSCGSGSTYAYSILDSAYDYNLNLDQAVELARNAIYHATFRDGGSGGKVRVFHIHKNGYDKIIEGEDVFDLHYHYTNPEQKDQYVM

[3] = molecular target: T3, P. falciparum proteasome, β2 (trypsin-like) activity (Plasmodium falciparum, UniProt Q8I6T3); assay: fluorogenic Ac-RLR-AMC cleavage in lysate of drug-treated parasites; assay type: cell-based; conditions: read-out: % inhibition at 700 nM
T3 construct: gene PF3D7_1328100; native proteasome in NP-40 lysate of 26-30 hpi trophozoites; not purified; 20S core of four heptameric rings; with Proteasome subunit beta type-5; Proteasome subunit beta type-6 (beta1 catalytic subunit)
T3 sequence (Q8I6T3 entry or part of it): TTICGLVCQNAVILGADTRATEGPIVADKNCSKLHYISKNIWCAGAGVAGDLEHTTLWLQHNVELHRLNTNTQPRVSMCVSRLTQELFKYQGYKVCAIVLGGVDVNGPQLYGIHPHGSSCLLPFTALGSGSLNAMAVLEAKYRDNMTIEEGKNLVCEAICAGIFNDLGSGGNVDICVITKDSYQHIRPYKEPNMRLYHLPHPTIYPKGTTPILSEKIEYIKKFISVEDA

[4] = molecular target: T4, P. falciparum proteasome, β1 (caspase-like) activity (Plasmodium falciparum, UniProt Q8I0U7); assay: fluorogenic Ac-nLPnLD-AMC cleavage in lysate of drug-treated parasites; assay type: cell-based; conditions: read-out: % inhibition at 700 nM
T4 construct: gene PF3D7_0931800; native proteasome in NP-40 lysate of 26-30 hpi trophozoites; not purified; 20S core of four heptameric rings; with Proteasome subunit beta type-7 (beta2 catalytic subunit); Proteasome subunit beta type-5
T4 sequence (Q8I0U7 entry or part of it): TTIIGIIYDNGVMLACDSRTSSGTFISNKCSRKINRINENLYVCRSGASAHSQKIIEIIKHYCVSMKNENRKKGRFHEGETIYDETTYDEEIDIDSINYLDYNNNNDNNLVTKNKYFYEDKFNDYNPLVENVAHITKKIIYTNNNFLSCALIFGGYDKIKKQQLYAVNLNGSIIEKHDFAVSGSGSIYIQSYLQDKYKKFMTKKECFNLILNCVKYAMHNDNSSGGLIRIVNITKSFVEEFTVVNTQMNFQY

[5] = test system: T5, P. falciparum proteasome, β1 (caspase-like) activity; conditions: live trophozoites treated 3 h, then lysed; K13 C580Y background; effect may be indirect
T5 construct: gene beta1

Structure (SMILES) | % inhibition at 3 μM [1] [%] | inhibition at 0.7 µM [2] [%] | inhibition at 0.7 µM [3] [%] | inhibition at 0.7 µM [4] [%] | % inhibition at 50 nM [5] [%]
c1cc(C2CCC3(CC2)OOC2(O3)C3CC4CC(C3)CC2C4)ccc1OCCN1CCOCC1 (centres unmarked) [OZ439] | 52 |  |  |  | 
C[C@@H]1CC[C@H]2[C@@H](C)C(O)O[C@@H]3O[C@@]4(C)CC[C@@H]1[C@]32OO4 (some centres unmarked) [DHA] |  | ~60 | ~40 | ~40 | 49

Source: PMC10246279, “Parasite proteostasis and artemisinin resistance” (Research Square, 2023)
